Values quoted from earlier work, collected in US20190281871A1, “CHICORY PRODUCTS CONTAINING CANNABINOIDS” (Full Spectrum Laboratories Ltd, priority 2016, published 2019).

Experiments:
5-HT1A receptor = biological target: T1, 5-HT1A receptor (Homo sapiens, UniProt P08908)
T1 sequence (P08908 1-422): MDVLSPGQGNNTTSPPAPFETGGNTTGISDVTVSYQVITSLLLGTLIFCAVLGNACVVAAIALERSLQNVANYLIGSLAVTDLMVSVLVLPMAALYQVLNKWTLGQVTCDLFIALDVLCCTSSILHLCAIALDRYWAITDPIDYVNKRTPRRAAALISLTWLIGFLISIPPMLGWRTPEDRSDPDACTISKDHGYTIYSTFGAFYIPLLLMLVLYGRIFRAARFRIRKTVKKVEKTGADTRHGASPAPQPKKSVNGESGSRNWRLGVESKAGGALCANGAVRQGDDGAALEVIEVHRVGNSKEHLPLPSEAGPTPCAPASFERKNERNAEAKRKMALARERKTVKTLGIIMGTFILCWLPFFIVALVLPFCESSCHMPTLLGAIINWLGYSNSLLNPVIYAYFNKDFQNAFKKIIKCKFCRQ

CB1 receptor = CB1 receptor (Homo sapiens, UniProt P21554)
Sequence of CB1 receptor (P21554 whole entry): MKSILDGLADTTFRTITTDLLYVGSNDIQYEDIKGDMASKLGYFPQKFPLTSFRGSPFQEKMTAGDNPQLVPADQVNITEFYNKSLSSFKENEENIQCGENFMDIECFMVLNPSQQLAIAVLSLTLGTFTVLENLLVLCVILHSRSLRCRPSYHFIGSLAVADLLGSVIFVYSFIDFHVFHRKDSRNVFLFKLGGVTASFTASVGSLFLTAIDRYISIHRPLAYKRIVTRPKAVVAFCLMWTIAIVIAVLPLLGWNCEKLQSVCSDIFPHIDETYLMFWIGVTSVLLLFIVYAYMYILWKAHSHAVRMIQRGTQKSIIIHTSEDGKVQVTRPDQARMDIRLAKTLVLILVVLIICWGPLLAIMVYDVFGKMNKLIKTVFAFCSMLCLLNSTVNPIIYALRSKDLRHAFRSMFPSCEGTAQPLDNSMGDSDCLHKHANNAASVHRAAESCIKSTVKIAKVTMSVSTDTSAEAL

Structure (SMILES): CCCCCc1cc(O)c(C/C=C(\C)CCC=C(C)C)c(O)c1 [CBG, cannabigerol]
- α2-adrenergic receptor agonist affinity (α2-adrenergic receptor): high affinity
- 5-HT1A receptor antagonist affinity (5-HT1A receptor): moderate affinity
- CB1 receptor antagonist affinity (CB1 receptor): low affinity
